Where two headings read alike, the source gives them in different places.
How the values were obtained:
[1] = system: thrombocyte aggregation (platelet-rich plasma of healthy test persons); experiment: Collagen-induced thrombocyte (platelet) aggregation in platelet-rich plasma, method of Born and Cross; assay type: cell-based, human; conditions: sodium citrate, 10 minutes incubation at 37° C., read-out: EC50 (50% change in optical density, inhibition of collagen-induced aggregation)
Method: Thrombocyte aggregation was measured according to the method of Born and Cross [J. Physiol. 170, 397 (1964)]in platelet-rich plasma of healthy test persons. To inhibit coagulation, the blood was mixed with sodium citrate in a volume ration of 1:10.
After addition of the aggregation-inducing substance, the rate of decrease in optical density of the platelet suspension is measured photometrically and recorded. The rate of aggregation was determined from the angle of inclination of the density curve. The point on the curve at which there was the greatest translucence served for calculating the optical density.
The quantity of collagen was chosen as small as possible, but sufficient so that an irreversible reaction was obtained. Commercial collagen of Hormonchemie, Munich, was used. Before the collagen was added, the plasma was incubated for 10 minutes with the test substance at 37° C.
An EC50 corresponding to a 50% change in the optical density with respect to aggregation inhibition was calculated graphically from the measurement values obtained.

[2] = Acute toxicity in mice after oral administration; assay type: in vivo; conditions: mouse, in vivo, po, dose of 250 mg/kg, observation time 14 days
Method: (§1) The acute toxicity of the test compounds was determined on groups of 6 to 10 mice after oral administration of a dose of 250 mg/kg (observation time: 14 days). For this purpose, the substances were suspended in 2% methyl cellulose, some water was subsequently added and the test substance was administered to the conscious animals by esophageal tube.

mice = experiment: Acute toxicity in mice after oral administration; assay type: in vivo; conditions: 250 mg/kg p.o., observation time 14 days
Method: as §1

Row | Compound | EC50 ([1]; Homo sapiens, 10 min) | LD50 at 336 h [2] | animals died (out of animals tested) (mice) | EC50 [1]
1 | CCCSc1ncnc2c(N3CC[S+]([O-])CC3)nc(NCCO)nc12 [A, 2-(2-Hydroxyethyl-amino)-4-(1-oxido-thiomorpholino)-8-propylthio-pyrimido[5,4-d]pyrimidine] | 310 nM | > 250 mg/kg | 0 out of 6 | 
2 | [O-][S+]1CCN(c2nc(NCCO)nc3c(SC4CCCCC4)ncnc23)CC1 [B, 8-Cyclohexylthio-2-(2-hydroxyethyl-amino)-4-(1-oxido-thiomorpholino)-pyrimido[5,4-d]pyrimidine] | 48 nM | > 250 mg/kg | 0 out of 10 | 
3 | [O-][S+]1CCN(c2nc(NCCO)nc3c(SCc4ccccc4)ncnc23)CC1 [C, 8-Benzylthio-2-(2-hydroxyethyl-amino)-4-(1-oxido-thiomorpholino)-pyrimido[5,4-d]pyrimidine] | 21 nM | > 250 mg/kg | 0 out of 10 | 
4 | COCCN(CCO)c1nc(N2CC[S+]([O-])CC2)c2ncnc(SCc3ccccc3)c2n1 [Compound E, 8-Benzylthio-2-[N-(2-hydroxy-ethyl)-N-(2-methoxyethyl)-amino]-4-(1-oxido-thiomorpholino)-pyrimido[5,4-d]pyrimidine] | 52 nM | > 250 mg/kg | 0 out of 10 | 
5 | [O-][S+]1CCN(c2nc(N(CCO)CCO)nc3c(SCc4ccccc4)ncnc23)CC1 [D, 8-Benzylthio-2-diethanolamino-4-(1-oxido-thiomorpholino)pyrimido[5,4-d]pyrimidine] | 62 nM | > 250 mg/kg | 0 out of 10 | 
6 | CSc1ccc(C(C)Sc2ncnc3c(N4CC[S+]([O-])CC4)nc(NCCO)nc23)cc1 (stereo not drawn) [F, 2-(2-Hydroxyethyl-amino)-8-(α-methyl-4-methylthiobenzylthio)-4-(1-oxido-thiomorpholino)-pyrimido[5,4-d]pyrimidine] | 29 nM | > 250 mg/kg | 0 out of 6 | 
7 | [O-][S+]1CCN(c2nc(NCCO)nc3c(SCc4ccco4)ncnc23)CC1 [G, 8-Furfurylthio-2-(2-hydroxyethyl-amino)-4-(1-oxidothiomorpholino)-pyrimido[5,4-d]pyrimidine] | 52 nM | > 250 mg/kg | 0 out of 6 | 
8 | CCCCN(CC)c1ncnc2c(N3CC[S+]([O-])CC3)nc(NCCO)nc12 [H, 8-(N-Ethyl-butylamino)-2-(2-hydroxyethyl-amino)-4-(1-oxidothiomorpholino)-pyrimido[5,4-d]pyrimidine] | 300 nM | > 250 mg/kg | 0 out of 6 | 
9 | CC(Nc1ncnc2c(N3CC[S+]([O-])CC3)nc(NCCO)nc12)c1ccccc1 [I, 2-(2-Hydroxyethyl-amino)-4-(1-oxido-thiomorpholino)-8-(L-1-phenylethyl-amino)-pyrimido[5,4-d]pyrimidine] |  |  |  | 28 nM
10 | [O-][S+]1CCN(c2nc(NCCO)nc3c(NCc4ccc(Cl)cc4)ncnc23)CC1 [K, 8-(4-Chlorobenzyl-amino)-2-(2-hydroxyethyl-amino)-4-(1-oxido-thiomorpholino)-pyrimido[5,4-d]pyrimidine] | 280 nM | > 250 mg/kg | 0 out of 10 | 
11 | [O-][S+]1CCN(c2nc(N(CCO)CCO)nc3c(N4CCCCC4)ncnc23)CC1 [L, 2-Diethanolamino-4-(1-oxido-thiomorpholino)-8-piperidino-pyrimido[5,4-d]pyrimidine] | 690 nM | > 250 mg/kg | 0 out of 10 | 
12 | CC(C)CCOc1ncnc2c(N3CC[S+]([O-])CC3)nc(N(CCO)CCO)nc12 [M, 2-Diethanolamino-8-isopentoxy-4-(1-oxido-thiomorpholino)-pyrimido[5,4-d]pyrimidine] | 460 nM | > 250 mg/kg | 0 out of 6 | 
13 | [O-][S+]1CCN(c2nc(N(CCO)CCO)nc3c(OCc4ccccc4)ncnc23)CC1 [N, 8-Benzyloxy-2-diethanolamino-4-(1-oxido-thiomorpholino)-pyrimido[5,4-d]pyrimidine] | 230 nM | > 250 mg/kg | 0 out of 10 | 
14 | COCCN(CCO)c1nc(N2CC[S+]([O-])CC2)c2ncnc(OCc3ccccc3)c2n1 [O, 8-Benzyloxy-2-[N-(2-hydroxy-ethyl)-N-(2-methoxy-ethyl)amino]-4-(1-oxido-thiomorpholino)-pyrimido[5,4-d]pyrimidine] | 300 nM | > 250 mg/kg | 0 out of 6 | 
15 | [O-][S+]1CCN(c2nc(N(CCO)CCO)nc3c(OCCCc4ccccc4)ncnc23)CC1 [P, 2-Diethanolamino-4-(1-oxido-thiomorpholino)-8-(3-phenylpropoxy)-pyrimido[5,4-d]pyrimidine] | 360 nM | > 250 mg/kg | 0 out of 6 | 
